Legend:
Format in all cases: cell-based
adenosine A1 receptor = biological target: T1, adenosine A1 receptor (Homo sapiens, UniProt P30542); experiment: Indirect determination of adenosine agonism by way of gene expression (luciferase, CHO cells), A1; settings: CHO cells stably transfected with A1 receptor cDNA; 1 μM forskolin; 50% inhibition of luciferase answer
T1 construct: expressed in transfected cells; host or cells: CHO (Chinese Hamster Ovary)
T1 sequence (P30542 1-326): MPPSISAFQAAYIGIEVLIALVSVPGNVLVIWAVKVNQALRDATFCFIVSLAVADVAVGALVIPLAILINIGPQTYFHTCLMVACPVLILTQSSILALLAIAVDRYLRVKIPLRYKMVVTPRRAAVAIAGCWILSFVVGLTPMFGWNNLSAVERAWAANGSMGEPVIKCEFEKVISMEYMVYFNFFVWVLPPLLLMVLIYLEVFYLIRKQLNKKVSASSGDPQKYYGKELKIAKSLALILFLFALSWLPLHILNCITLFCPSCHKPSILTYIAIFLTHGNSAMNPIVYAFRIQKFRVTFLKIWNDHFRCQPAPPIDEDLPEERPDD
From the text: (§1) B-1. Indirect Determination of the Adenosine Agonism by Way of Gene Expression
(§2) Cells of the CHO (Chinese Hamster Ovary) permanent cell line are transfected stably with the cDNA for the adenosine receptor subtypes A1, A2a and A2b. The adenosine A1 receptors are coupled to the adenylate cyclase by way of Gi proteins, while the adenosine A2a and A2b receptors are coupled by way of Gs proteins. In correspondence with this, the formation of cAMP in the cell is inhibited or stimulated, respectively. After that, expression of the luciferase is modulated by way of a cAMP-dependent promoter. The luciferase test is optimized, with the aim of high sensitivity and reproducibility, low variance and good suitability for implementation on a robot system, by varying several test parameters, such as cell density, duration of the growth phase and the test incubation, forskolin concentration and medium composition. The following test protocol is used for pharmacologically characterizing cells and for the robot-assisted substance screening:
(§3) The stock cultures are grown, at 37° C. and under 5% CO2, in DMEM/F12 medium containing 10% FCS (foetal calf serum) and in each case split 1:10 after 2-3 days. The test cultures are seeded in 384-well plates with 2000 cells per well and grown at 37° C. for approx. 48 hours. The medium is then replaced with a physiological sodium chloride solution (130 mM sodium chloride, 5 mM potassium chloride, 2 mM calcium chloride, 20 mM HEPES, 1 mM magnesium chloride hexahydrate, 5 mM sodium bicarbonate, pH 7.4). The substances to be tested, which are dissolved in DMSO, are pipetted into the test cultures (maximum final concentration of DMSO in the test mixture: 0.5%) in a dilution series of from 5×10^−11M to 3×10^−6M (final concentration). 10 minutes later, forskolin is added to the A1 cells and all the cultures are subsequently incubated at 37° C. for four hours. After that, 35 μl of a solution which is composed of 50% lysis reagent (30 mM disodium hydrogenphosphate, 10% glycerol, 3% TritonX100, 25 mM TrisHCl, 2 mM dithiotreitol (DTT), pH 7.8) and 50% luciferase substrate solution (2.5 mM ATP, 0.5 mM luciferin, 0.1 mM coenzyme A, 10 mM tricine, 1.35 mM magnesium sulphate, 15 mM DTT, pH 7.8) are added to the test cultures, which are shaken for approx. 1 minute and the luciferase activity is measured using a camera system. The EC50 values are determined, i.e., the concentrations at which 50% of the luciferase answer is inhibited in the case of the A1 cell, and, respectively, 50% of the maximum stimulation with the corresponding substance is achieved in the case of the A2b and A2a cells. […] Pharmacol., 357 (1998), 1-9).
(§4) Table 18 below lists the EC50 values of representative working examples for the receptor stimulation on adenosine A1, A2a and A2b receptor subtypes: […]

adenosine A2b receptor = biological target: T2, adenosine A2b receptor (Homo sapiens, UniProt P29275); experiment: Indirect determination of adenosine agonism by way of gene expression (luciferase, CHO cells), A2b; settings: CHO cells stably transfected with A2b receptor cDNA; 50% of maximum luciferase stimulation
T2 construct: expressed in transfected cells; host or cells: CHO (Chinese Hamster Ovary)
T2 sequence (P29275 1-332): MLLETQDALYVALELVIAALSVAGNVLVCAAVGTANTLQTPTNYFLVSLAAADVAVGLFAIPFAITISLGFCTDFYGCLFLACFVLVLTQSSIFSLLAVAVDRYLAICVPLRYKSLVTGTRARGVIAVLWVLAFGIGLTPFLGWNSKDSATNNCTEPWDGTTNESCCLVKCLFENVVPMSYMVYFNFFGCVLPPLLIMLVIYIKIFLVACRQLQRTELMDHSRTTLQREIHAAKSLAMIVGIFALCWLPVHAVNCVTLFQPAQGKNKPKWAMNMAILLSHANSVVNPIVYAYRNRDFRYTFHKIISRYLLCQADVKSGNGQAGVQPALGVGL
From the text: as §1, §2, §3, §4

adenosine A2a receptor = biological target: T3, adenosine A2a receptor (Homo sapiens, UniProt P29274); experiment: Indirect determination of adenosine agonism by way of gene expression (luciferase, CHO cells), A2a; settings: CHO cells stably transfected with A2a receptor cDNA; 50% of maximum luciferase stimulation
T3 construct: expressed in transfected cells; host or cells: CHO (Chinese Hamster Ovary)
From the text: as §1, §2, §3, §4

T3 sequence (P29274 whole entry): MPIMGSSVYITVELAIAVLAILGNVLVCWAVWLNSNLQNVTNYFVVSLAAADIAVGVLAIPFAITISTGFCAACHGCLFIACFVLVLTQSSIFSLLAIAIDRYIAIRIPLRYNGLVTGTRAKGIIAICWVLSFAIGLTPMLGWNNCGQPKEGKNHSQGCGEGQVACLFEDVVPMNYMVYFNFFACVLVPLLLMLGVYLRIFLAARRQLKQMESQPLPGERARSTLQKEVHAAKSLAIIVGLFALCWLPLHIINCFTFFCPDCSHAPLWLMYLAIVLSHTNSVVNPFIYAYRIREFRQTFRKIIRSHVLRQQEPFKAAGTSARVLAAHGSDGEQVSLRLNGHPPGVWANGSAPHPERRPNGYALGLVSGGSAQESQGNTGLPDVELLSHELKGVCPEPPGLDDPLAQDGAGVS

SMILES | EC50 (adenosine A1 receptor) | EC50 (adenosine A2b receptor) | EC50 (adenosine A2a receptor)
Cc1oc(-c2ccc(F)cc2)nc1CSc1nc(N)c(C#N)c(-c2ccc(OC[C@@H](O)CO)cc2)c1C#N [Example 50] | 0.4 nM | 118 nM | 
N#Cc1c(N)nc(SCc2ncoc2-c2ccc(Cl)cc2)c(C#N)c1-c1ccc(OC[C@@H](O)CO)cc1 [Example 93] | 8.9 nM | 336 nM | 522 nM
N#Cc1c(N)nc(OCc2coc(-c3ccc(Cl)cc3)n2)c(C#N)c1-c1ccc(OCCO)cc1 [Example 110, 2-Amino-6-{[2-(4-chlorophenyl)-1,3-oxazol-4-yl]methoxy}-4-[4-(2-hydroxyethoxy)phenyl]pyridine-3,5-dicarbonitrile] | 0.3 nM | 95 nM | 497 nM
N#Cc1c(N)nc(OCc2coc(-c3ccc(F)c(F)c3)n2)c(C#N)c1-c1ccc(OCCO)cc1 [Example 114] | 0.2 nM | 969 nM | 1970 nM
N#Cc1c(N)nc(SCc2coc(-c3ccc(Cl)cc3)n2)c(C#N)c1-c1ccc(OC[C@@H](O)CO)cc1 [Example 48, 2-Amino-6-({[2-(4-chlorophenyl)-1,3-oxazol-4-yl]methyl}sulfanyl)-4-(4-{[(2S)-2,3-dihydroxypropyl]oxy}phenyl)pyridine-3,5-dicarbonitrile] | 0.3 nM | 4.4 nM | 138 nM
N#Cc1c(N)nc(SCc2coc(-c3ccc(F)c(Cl)c3)n2)c(C#N)c1-c1ccc(OCCO)cc1 [Example 10] | 0.5 nM | 922 nM | 1130 nM
N#Cc1c(N)nc(SCc2coc(-c3ccc(F)c(F)c3)n2)c(C#N)c1-c1ccc(OCCO)cc1 [Example 11] | 0.3 nM | 845 nM | 703 nM
N#Cc1c(OCc2coc(-c3ccc(Cl)cc3)n2)nc(N2CC(O)C2)c(C#N)c1-c1ccc(OCCO)cc1 [Example 130] | 0.6 nM | 245 nM | 
N#Cc1c(SCc2coc(-c3ccc(Cl)cc3)n2)nc(N2CCC2)c(C#N)c1-c1ccc(OCCO)cc1 [Example 126] | 0.5 nM | 78 nM | 684 nM
N#Cc1c(N)nc(SCc2coc(-c3ccc(F)cc3)n2)c(C#N)c1-c1ccc(OC[C@H](O)CO)cc1 [Example 101] | 0.4 nM | 226 nM | 72 nM
N#Cc1c(SCc2coc(-c3ccc(Cl)cc3)n2)nc(N2CCCC2)c(C#N)c1-c1ccc(OCCO)cc1 [Example 116, 2-({[2-(4-Chlorophenyl)-1,3-oxazol-4-yl]methyl}sulfanyl)-4-[4-(2-hydroxyethoxy)phenyl]-6-(pyrrolidin-1-yl)pyridine-3,5-dicarbonitrile] | 0.4 nM | 698 nM | 
N#Cc1c(NC[C@@H](O)CO)nc(SCc2coc(-c3ccc(Cl)cc3)n2)c(C#N)c1-c1ccc(OCCO)cc1 [Example 119] | 0.3 nM |  | 1950 nM
COc1ccc(-c2nc(CSc3nc(N)c(C#N)c(-c4ccc(OC[C@H](O)CO)cc4)c3C#N)c(C)o2)cc1 [Example 66] | 0.9 nM | 370 nM | 575 nM
Cc1cc(-c2nc(CSc3nc(N)c(C#N)c(-c4ccc(OC[C@H](O)CO)cc4)c3C#N)co2)ccc1Cl [Example 80] | 0.8 nM | 89 nM | 461 nM
Cc1oc(-c2ccc(Cl)cc2)nc1CSc1nc(N)c(C#N)c(-c2ccc(OC[C@@H](O)CO)cc2)c1C#N [Example 60] | 0.3 nM | 236 nM | 
N#Cc1c(N)nc(SCc2coc(-c3ccc(F)cc3)n2)c(C#N)c1-c1ccc(OC[C@@H](O)CO)cc1 [Example 81] | 0.3 nM | 20 nM | 64 nM
N#Cc1c(SCc2coc(-c3ccc(Cl)cc3)n2)nc(N2CC[C@@H](O)C2)c(C#N)c1-c1ccc(OCCO)cc1 [Example 127] | 0.4 nM | 283 nM | 984 nM
Cc1oc(-c2ccccc2F)nc1CSc1nc(N)c(C#N)c(-c2ccc(OC[C@@H](O)CO)cc2)c1C#N [Example 61] | 0.7 nM | 221 nM | 439 nM
N#Cc1c(SCc2coc(-c3ccc(Cl)cc3)n2)nc(N2CC(O)C2)c(C#N)c1-c1ccc(OCCO)cc1 [Example 128] | 0.1 nM | 237 nM | 1050 nM
N#Cc1c(NCCO)nc(SCc2coc(-c3ccc(Cl)cc3)n2)c(C#N)c1-c1ccc(OCCO)c(F)c1 [Example 122, 2-({[2-(4-Chlorophenyl)-1,3-oxazol-4-yl]methyl}sulfanyl)-4-[3-fluoro-4-(2-hydroxyethoxy)phenyl]-6-[(2-hydroxyethyl)amino]pyridine-3,5-dicarbonitrile] | 4.1 nM | 2250 nM | 
N#Cc1c(NCCO)nc(SCc2coc(-c3ccc(Cl)cc3)n2)c(C#N)c1-c1ccc(OCCO)cc1 [Example 117] | 0.2 nM | 1090 nM | 1440 nM
Cc1oc(-c2ccc(C(=O)O)cc2)nc1CSc1nc(N)c(C#N)c(-c2ccc(OCC(C)(C)O)cc2)c1C#N [Example 95, 4-{4-[({6-Amino-3,5-dicyano-4-[4-(2-hydroxy-2-methylpropoxy)phenyl]pyridin-2-yl}thio)methyl]-5-methyl-1,3-oxazol-2-yl}benzoic acid] | 0.5 nM |  | 
Cc1cc(-c2nc(CSc3nc(N)c(C#N)c(-c4ccc(OCCO)cc4)c3C#N)co2)ccc1F [Example 31] | 0.9 nM | 315 nM | 467 nM
N#Cc1c(N)nc(SCc2coc(-c3ccc(Cl)cc3)n2)c(C#N)c1-c1ccc(OC[C@H](O)CO)cc1 [Example 49, 2-Amino-6-({[2-(4-chlorophenyl)-1,3-oxazol-4-yl]methyl}sulfanyl)-4-(4-{[(2R)-2,3-dihydroxypropyl]oxy}phenyl)pyridine-3,5-dicarbonitrile] | 0.4 nM | 100 nM | 300 nM
C[C@H](O)COc1ccc(-c2c(C#N)c(N)nc(SCc3coc(-c4ccc(Cl)cc4)n3)c2C#N)cc1 [Example 106] | 0.3 nM | 48 nM | 318 nM
N#Cc1c(NCCO)nc(OCc2coc(-c3ccc(Cl)cc3)n2)c(C#N)c1-c1ccc(OCCO)cc1 [Example 129] | 0.4 nM |  | 
COC(=O)c1ccc(-c2nc(CSc3nc(N)c(C#N)c(-c4ccc(OC[C@@H](O)CO)cc4)c3C#N)c(C)o2)cc1 [Example 57] | 0.2 nM | 44 nM | 525 nM

From patent US8440700B2, “Substituted aryloxazoles and their use” (Bayer Intellectual Property GmbH, priority 2007, dated 2013)
